Read-outs that look alike come from different tables or passages of the source.
Tests used:
[1] = target: T1, human OX2 receptor (Homo sapiens, UniProt O43614); assay: Measurement of orexin receptor antagonistic activity (calcium fluorescence, FLIPRtetra); format: cell-based; details: CHO, read-out: Human Orexin2 receptor inhibition (at 10 μM)
T1 construct: expressed in transfected cells; host or cells: CHO cells
T1 sequence (O43614 1-444): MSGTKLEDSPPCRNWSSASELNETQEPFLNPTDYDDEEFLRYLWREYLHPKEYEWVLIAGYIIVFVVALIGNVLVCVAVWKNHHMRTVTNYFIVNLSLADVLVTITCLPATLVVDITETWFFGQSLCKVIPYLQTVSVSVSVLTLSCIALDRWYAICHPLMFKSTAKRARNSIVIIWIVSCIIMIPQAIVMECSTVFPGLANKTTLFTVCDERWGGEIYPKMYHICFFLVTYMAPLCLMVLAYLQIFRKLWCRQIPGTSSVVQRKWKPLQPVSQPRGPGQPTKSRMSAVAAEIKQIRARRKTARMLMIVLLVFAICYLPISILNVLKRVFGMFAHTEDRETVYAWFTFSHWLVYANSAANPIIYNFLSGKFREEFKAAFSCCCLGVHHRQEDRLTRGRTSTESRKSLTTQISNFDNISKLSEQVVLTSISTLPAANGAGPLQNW
Method: (§1) Measurement of Orexin Receptor Antagonistic Activity
(§2) CHO cells forcibly expressing human OX1 receptor or human OX2 receptor were seeded in each well of 384 well black transparent bottom plate (BD Falcon) at 7,500 cells/well, and cultured for one day in a 5% CO2 incubator at 37° C. […] The plate was stood for 30 min in a 5% CO2 incubator at 37° C., and further stood at room temperature for 30 min. A test compound prepared by diluting with assay buffer B (HBSS, 20 mM HEPES, 0.1% BSA) was added at 10 μL/well, and then OX-A (OX1 receptor, final concentration; 1 nM) or OX-A (OX2 receptor, final concentration; 0.3 nM) was added at 10 μL/well, and the fluorescence value was measured by FLIPRtetra (Molecular Devices) every one sec for 2 min.

[2] = target: T2, human OX1 receptor (Homo sapiens, UniProt O43613); assay: as above; format: cell-based; details: CHO, read-out: Human Orexin1 receptor inhibition (at 10 μM)
T2 construct: expressed in transfected cells; host or cells: CHO cells
T2 sequence (O43613 1-425): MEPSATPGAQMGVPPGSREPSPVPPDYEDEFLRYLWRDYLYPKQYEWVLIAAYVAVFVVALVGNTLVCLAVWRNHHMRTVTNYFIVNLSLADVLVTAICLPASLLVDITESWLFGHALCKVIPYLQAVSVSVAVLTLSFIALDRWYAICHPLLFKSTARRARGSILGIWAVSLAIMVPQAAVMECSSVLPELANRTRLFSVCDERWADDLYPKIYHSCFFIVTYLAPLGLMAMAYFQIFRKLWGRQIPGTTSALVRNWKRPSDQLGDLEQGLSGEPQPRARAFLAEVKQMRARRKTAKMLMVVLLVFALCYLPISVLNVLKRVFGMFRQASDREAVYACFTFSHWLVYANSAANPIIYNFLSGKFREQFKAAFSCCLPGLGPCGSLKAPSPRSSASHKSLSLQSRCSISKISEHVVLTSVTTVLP
Method: as §1, §2

[3] = 10 μM test compound, CHO cells expressing human OX2 receptor, OX-A 0.3 nM
[4] = 10 μM test compound, CHO cells expressing human OX1 receptor, OX-A 1 nM

| inhibition at 10 µM [1, 3] [%] | inhibition at 10 µM [2, 4] [%] | Structure (SMILES) | inhibition at 10 µM [1] [%] | inhibition at 10 µM [2] [%] |
| --- | --- | --- | --- | --- |
|  |  | COc1ccc(Cl)cc1C(=O)N1CCON(c2nc(C)cc(C)n2)CC1 [Example 58, (5-chloro-2-methoxyphenyl) (2-(4,6-dimethylpyrimidin-2-yl)-1,2,5-oxadiazepan-5-yl)methanone] | 99 | 29 |
|  |  | Cc1cc(C)nc(N2CCN(C(=O)c3ccc(Cl)cc3Cl)CCO2)n1 [Example 59, (2,4-dichlorophenyl) (2-(4,6-dimethylpyrimidin-2-yl)-1,2,5-oxadiazepan-5-yl)methanone] | 65 | 1 |
|  |  | COc1cccc(C(=O)N2CCON(c3nc(C)cc(C)n3)CC2)c1Cl [Example 60, (2-chloro-3-methoxyphenyl) (2-(4,6-dimethylpyrimidin-2-yl)-1,2,5-oxadiazepan-5-yl)methanone] | 3 | -1 |
| 94 | 22 | CCOc1ccccc1C(=O)N1CCON(c2nc(C)cc(C)n2)CC1 [Example 61, (2-(4,6-dimethylpyrimidin-2-yl)-1,2,5-oxadiazepan-5-yl) (2-ethoxyphenyl)methanone] |  |  |
| 72 | 2 | Cc1cc(C)nc(N2CCN(C(=O)c3ccccc3C(F)(F)F)CCO2)n1 [Example 62] |  |  |
|  |  | COc1c(C#N)cccc1C(=O)N1CCON(c2nc(C)cc(C)n2)CC1 [Example 63, 3-((2-(4,6-dimethylpyrimidin-2-yl)-1,2,5-oxadiazepan-5-yl)carbonyl)-2-methoxybenzonitrile] | 49 | 11 |
| 101 | 76 | Cc1cc(C)nc(N2CCN(C(=O)c3cccc4ccccc34)CCO2)n1 [Example 64, (2-(4,6-dimethylpyrimidin-2-yl)-1,2,5-oxadiazepan-5-yl) (1-naphthyl)methanone] |  |  |
|  |  | Cc1cc(C)nc(N2CCN(C(=O)c3cccc4ncccc34)CCO2)n1 [Example 65, (2-(4,6-dimethylpyrimidin-2-yl)-1,2,5-oxadiazepan-5-yl) (quinolin-5-yl)methanone] | 84 | 9 |
| 90 | 13 | Cc1cc(C)nc(N2CCN(C(=O)c3cccc4cccnc34)CCO2)n1 [Example 66, (2-(4,6-dimethylpyrimidin-2-yl)-1,2,5-oxadiazepan-5-yl) (quinolin-8-yl)methanone] |  |  |
|  |  | Cc1cc(C)nc(N2CCN(C(=O)c3cccc4nccnc34)CCO2)n1 [Example 67, (2-(4,6-dimethylpyrimidin-2-yl)-1,2,5-oxadiazepan-5-yl) (quinoxalin-5-yl)methanone] | 44 | 5 |
|  |  | Cc1cc(C)nc(N2CCN(C(=O)c3cccc4ncc(C)nc34)CCO2)n1 [Example 68, (2-(4,6-dimethylpyrimidin-2-yl)-1,2,5-oxadiazepan-5-yl) (3-methylquinoxalin-5-yl)methanone] | 87 | 28 |
|  |  | Cc1cc(C)nc(N2CCN(C(=O)c3cccc4nn(C)cc34)CCO2)n1 [Example 69, (2-(4,6-dimethylpyrimidin-2-yl)-1,2,5-oxadiazepan-5-yl) (2-methyl-2H-indazol-4-yl) methanone] | 45 | 3 |
|  |  | Cc1cc(C)nc(N2CCN(C(=O)c3cccc4nc(C)oc34)CCO2)n1 [Example 70, (2-(4,6-dimethylpyrimidin-2-yl)-1,2,5-oxadiazepan-5-yl) (2-methyl-1,3-benzoxazol-7-yl)methanone] | 17 | -6 |
|  |  | Cc1cc(C)nc(N2CCN(C(=O)c3cccc4ccn(C)c34)CCO2)n1 [Example 71, (2-(4,6-dimethylpyrimidin-2-yl)-1,2,5-oxadiazepan-5-yl) (1-methyl-1H-indol-7-yl) methanone] | 99 | 53 |
| 94 | 34 | Cc1cc(C)nc(N2CCN(C(=O)c3cccc4c3ccn4C)CCO2)n1 [Example 72, (2-(4,6-dimethylpyrimidin-2-yl)-1,2,5-oxadiazepan-5-yl) (1-methyl-1H-indol-4-yl) methanone] |  |  |
|  |  | Cc1cc(C)nc(N2CCN(C(=O)c3cccc4nsnc34)CCO2)n1 [Example 73, 2,1,3-benzothiadiazol-4-yl (2-(4,6-dimethylpyrimidin-2-yl)-1,2,5-oxadiazepan-5-yl)methanone] | 42 | 13 |
| 57 | 10 | Cc1cc(C)nc(N2CCN(C(=O)c3cccc4c3OCC4)CCO2)n1 [Example 74, 2,3-dihydro-1-benzofuran-7-yl (2-(4,6-dimethylpyrimidin-2-yl)-1,2,5-oxadiazepan-5-yl)methanone] |  |  |
|  |  | Cc1cc(C)nc(N2CCN(C(=O)c3cccc4c3OC(C)(C)C4)CCO2)n1 [Example 75, (2,2-dimethyl-2,3-dihydro-1-benzofuran-7-yl) (2-(4,6-dimethylpyrimidin-2-yl)-1,2,5-oxadiazepan-5-yl)methanone] | 75 | 10 |
|  |  | Cc1cc(C)nc(N2CCN(C(=O)c3cccc4c3C(=O)N(C)C4)CCO2)n1 [Example 76, 7-((2-(4,6-dimethylpyrimidin-2-yl)-1,2,5-oxadiazepan-5-yl)carbonyl)-2-methylisoindolin-1-one] | 22 | 6 |
|  |  | COc1cc2c(cc1C(=O)N1CCON(c3nc(C)cc(C)n3)CC1)CCC2 [Example 77, (2-(4,6-dimethylpyrimidin-2-yl)-1,2,5-oxadiazepan-5-yl) (6-methoxy-2,3-dihydro-1H-inden-5-yl)methanone] | 69 | 12 |
| 52 | 27 | Cc1cc(C)nc(N2CCN(C(=O)c3cccc(-c4ccccc4)c3)CCO2)n1 [Example 78, biphenyl-3-yl (2-(4,6-dimethylpyrimidin-2-yl)-1,2,5-oxadiazepan-5-yl)methanone] |  |  |
| 98 | 57 | Cc1cc(C)nc(N2CCN(C(=O)c3ccccc3-c3ccccc3)CCO2)n1 [Example 79, biphenyl-2-yl (2-(4,6-dimethylpyrimidin-2-yl)-1,2,5-oxadiazepan-5-yl)methanone] |  |  |
|  |  | Cc1cc(C)nc(N2CCN(C(=O)c3ccccc3-n3cccc3)CCO2)n1 [Example 80, (2-(4,6-dimethylpyrimidin-2-yl)-1,2,5-oxadiazepan-5-yl) (2-(1H-pyrrol-1-yl)phenyl)methanone] | 94 | 14 |
| 99 | 85 | Cc1cc(C)nc(N2CCN(C(=O)c3ccccc3-c3ccco3)CCO2)n1 [Example 81, (2-(4,6-dimethylpyrimidin-2-yl)-1,2,5-oxadiazepan-5-yl) (2-(2-furyl)phenyl)methanone] |  |  |
| 83 | 18 | Cc1cc(C)nc(N2CCN(C(=O)c3ccccc3-c3ncc[nH]3)CCO2)n1 [Example 82, (2-(4,6-dimethylpyrimidin-2-yl)-1,2,5-oxadiazepan-5-yl) (2-(1H-imidazol-2-yl)phenyl)methanone] |  |  |
|  |  | Cc1cc(C)nc(N2CCN(C(=O)c3cc(C#N)ccc3C)CCO2)n1 [Example 83, 3-((2-(4,6-dimethylpyrimidin-2-yl)-1,2,5-oxadiazepan-5-yl)carbonyl)-4-methylbenzonitrile] | 24 | 7 |
| 98 | 100 | Cc1cc(N2CCN(C(=O)c3ccccc3-c3nccs3)C[C@H](C)O2)nc(C)n1 [Example 84, ((7S)-2-(2,6-dimethylpyrimidin-4-yl)-7-methyl-1,2,5-oxadiazepan-5-yl)(2-(1,3-thiazol-2-yl)phenyl)methanone] |  |  |
| 102 | 98 | Cc1nc(N2CCN(C(=O)c3ccccc3-c3nccs3)C[C@H](C)O2)cc(C(F)(F)F)n1 [Example 85, ((7S)-7-methyl-2-(2-methyl-6-(trifluoromethyl)pyrimidin-4-yl)-1,2,5-oxadiazepan-5-yl)(2-(1,3-thiazol-2-yl)phenyl)methanone] |  |  |

— patent US10131653B2, “Heterocyclic compound” (TAKEDA PHARMACEUTICAL COMPANY LIMITED, priority 2015, dated 2018)
